Assays:
human colon organoids = assay: Human colon organoids incubated with FAP CM; format: cell-based; settings: FAP CM with or without LiCl
[1] = tested on: Apc-/- mutant clones in crypts; assay: Short term clonal dynamics of Notumpos/Apc-/- clones in Lgr5-CreErt2;Apcfl/fl mice; format: in vivo, mouse
Experimental: Lgr5-EGFP-IRES-Cre^ERT2 Villin-Cre^ERT2, Rosa26mTmG, Apc^fl/fl and Kras^G12D mice have been described earlier^30-34. All in vivo experiments were approved by the animal experimentation committee at the Amsterdam UMC—location Academic Medical Center in Amsterdam under nationally registered licence number AVD1180020172125 and performed according to national guidelines. Mice were housed in a 12 hour light/12 hour dark cycle, with temperatures between 20-24° C. and 40-70% humidity. For short term assays, both male and female mice were used. For long term assays, only females were used to prevent the risk of preliminary dropout due to fighting male mice. All mice were between 6-12 weeks old at the start of the experiments. For all mouse experiments, sufficient sample sizes were determined based on previous studies with a similar study design^3,35. Experimental animals were randomly assigned to the control or lithium treated groups, clone sizes and adenoma counts were scored blindly. In vivo low-dose recombination was induced by intraperitoneal injection (i.p.) of 0.3 mg (for Rosa26^mTmG and Kras^G12D mice) or 2 mg (for Ape^−/− mice) tamoxifen (Sigma) dissolved in sunflower oil. […] Treatment with LiCl was initiated 7 days before recombination by i.p. injection of tamoxifen and was administered until the day they were sacrificed. For short term experiments to study stem cell dynamics, mice were sacrificed at day 4, 7, 10, 14, 21 days after intra peritoneal (i.p.) injection and intestines were removed and further processed for analyses. For long term adenoma formation experiments, mice were injected with 2 mg tamoxifen and sacrificed 60 days after i.p. injection. Mouse discomfort during tumour formation assays was closely monitored, and endpoints were determined as <15% weight loss within 2 days or a mouse grimace scale (MGS) score<3. […] After 60 days, intestines were removed and polyps were counted macroscopically.
After the mice were sacrificed, intestines were removed fully and washed thoroughly with ice-cold PBS. The intestines were cut into pieces of 5 mm, opened longitudinally and fixed overnight in 4% paraformaldehyde (PFA) solution. To preserve tissue integrity the intestines were kept in 30% sucrose solution for another night before freezing. Crypt bottoms were sliced with a thickness of […] at a Cryostar™ NX70 cryostat and placed on glass slips. Fluorescent lineage tracing labels were visualized with a SP8X Confocal (Leica), slides were counterstained with Hoechst-33342. RNA-ISH stained coupes were counterstained with hematoxylin and scanned using the IntelliSite Ultra Fast 1.6 slide scanner (Philips). For all crypt analyses, clone sizes were quantified as proportions of the crypt circumference (in eights, 1:8-8:8).
RNA in situ hybridisation (RNAscope) and Basescope was performed on fixed frozen intestinal tissue (mouse) and paraffine embedded tissue (mouse and human) according to manufacturer's protocol (ACD RNAscope® 2.5 HD—Brown and Red, and ACD BaseScope™ v2—Red). RNAscope was used for detection of mouse Notum (#428981), Wif1 (#412361), Dkk2 (#404841) or positive control Ppib (#313911) and human NOTUM (#430311) and positive control PPIB (#313901). BaseScope probe ApcE14-E16 (#703011) was used to detect recombined Apc alleles. RNAscope duplex was performed using the RNAscope Duplex Reagent Kit (#322430, ACD) with additional Lgr5 probe (#312171-C2). After RNAscope procedures tissues were counterstained for Hematoxylin or Hoechst-33342. RNAscope was quantified using QuPath software v0.2.2^39.
The clone data was modelled using the models and methods developed in Vermeulen et al.^3. An R package implementing the model was used and is available at https://qithub.com/MorrisseyLab/CryptDriftR.

[2] = tested on: Wnt pathway (TOP-GFP reporter); assay: TOP-GFP Wnt reporter assay in MEFs; format: cell-based, mouse
Experimental: Mouse embryonic fibroblasts (MEFs, ATCC) and HEK293T (ATCC) cells were both cultured in Dulbecco's Modified Eagle's Medium (DMEM) supplemented with 10% fetal calf serum (FCS), 1% Glutamine, and antibiotic penicillin and streptomycin. Cells were maintained at 37° C. in humidified air containing 5% CO2. All cell lines were routinely checked for mycoplasm contamination, no cell line authentication was performed.
Mouse embryonic fibroblasts (MEFs) were cultured in Dulbecco's Modified Eagle's Medium (DMEM) supplemented with 10% fetal calf serum (FCS), 1% Glutamine, and antibiotic penicillin and streptomycin. MEFs were stably transduced with Wnt reporter TOP-GFP (Addgene plasmid #35491). For TOP-GFP assays, cells were stimulated with Wnt3A conditioned medium for 24 hours after which GFP positivity was measured by flow cytometry.

## [Cl-].[Li+] [LiCl, lithium chloride]
Human colon organoids
  Stemness (LGR5 expression) and clonogenicity of human colon organoids incubated with FAP CM: rescued loss of sternness and clonogenicity
[1]; Lgr5-CreErt2;Apcfl/fl mice, oral LiCl
  Reduction of Lgr5 expression by Notumpos/Apc-/- clones within the same and neighbouring crypts: prevented this
[1]; LiCl treated mice, day 21
  Number of Notumpos clones (crypts): reduced number of Notum^pos clones
[1]; LiCl treated mice, model
  Probability of clonal fixation in a crypt (Pfix): markedly reduced probability of clonal fixation
[1]; LiCl treated mice, adapted drift model, 4.7 untreated with Apc-/- clones, 5.6 fully WT crypts
  Number of functional ISCs (WT stem cells, NWT) in crypts: 6.5 (95% Cl: 6.2-6.8)
[1]; LiCl treated mice, inferred by stem cell drift model, untreated 0.65, neutral 0.5
  Probability of replacement (PR) of WT ISCs by Apc-/- ISCs: 0.34 (95% Cl: 0.31-0.37)
[1]; LiCl versus non-treated mice, up to day 21
  Rate of Notumpos/Apc-/- clone expansion and fixation: significantly reduced
[2]; MEFs, TOP-GFP reporter, 5 mM LiCl
  Effect on Apc-/- CM reduction of Wnt3a mediated Wnt activation (TOP-GFP): completely abrogated this effect
[2]; comparable concentrations (5 or 10 mM)
  Wnt signalling activation in Wnt reporter assay, Li2CO3 compared with LiCl: activated the same amount of Wnt signalling

Reference: patent US20240091254A1, “WNT AGONISTS FOR PREVENTION OF CANCER” (ACADEMISH MEDISCH CENTRUM, priority 2021, published 2024)
